According to patent publication EP0655506B1 (priority 1994, dated 1995):
Read-outs that look alike come from different tables or passages of the source.

How the values were obtained:
T7 DNA polymerase = T7 DNA polymerase (Escherichia phage T7, UniProt P00581); details: '(for ddATP)' stands at the end of the sentence, cited from earlier work
[1] = target: T1, HIV reverse transcriptase, change of Glu 89 to Glycine (Human immunodeficiency virus type 1 group M subtype B, UniProt P04585, E676G); details: relative to the unmutated enzyme; cited from earlier work
T1 construct: glu-89 of human immunodeficiency virus type 1 reverse transcriptase

[2] = target: T2, T7 DNA polymerase mutant T7 C-T2, R R S A K A I N F G L I Y G (Escherichia phage T7, UniProt P00581, D519R/DEL118-145/F524I/F528L/I525N/L529I/N520S/T523A/Y526F); test: SDS activity gel analysis, incorporation of ddNMP relative to dNMP (Example 2); format: biochemical, bacteriophage T7; details: renatured enzyme in gel; 1.5 µM 4dNTPs with or without 30 µM ddTTP; 37 °C 4 hr
T2 construct: made in house; host or cells: induced cells of a strain producing E. coli thioredoxin; crude lysate, renatured in gel
Method: (§1) Mutant DNA polymerases are screened for their ability to incorporate dideoxynucleotides by SDS activity gel analysis. The procedure is a modification of that described by Spanos and Hübscher 91 Methods in Enzymology 263, 1983 and Karawya et al. 135 Analytical Biochemistry 318, 1983. Briefly, 10 ml of cells are induced for 4 to 6 hours and then pelleted. The cell pellet is resuspended in 0.3 ml 25 mM Tris HCl, pH 7.0, 5 mM EDTA. 20 µl of the resuspended cells are mixed with 40 µl of a solution of 1% SDS (sodium dodecyl sulfate), 2% mercaptoethanol, 30 % glycerol, 0.04% bromphenol blue, and 100 mM TrisHCl, pH 6.8. The mixtures are incubated at 37 °C for 5 min, and then 20 µl aliquots are loaded in duplicate onto two SDS polyacrylamide gels. The SDS polyacrylamide gels consist of a resolving gel that contains 8% polyacrylamide, 0.27% bisacrylamide, 190 mM TrisHCl, pH 8.8, 0.05% SDS, and 25 µg/ml denatured salmon sperm DNA, and a stacking gel that consists of 5% polyacrylamide, 0.17% bisacrylamide, 150 mM TrisHCl, pH 6.8, and 0.1% SDS. The two gels are electrophoresed at 100 V for 13 hr at a constant temperature of 13 °C in an electrophoresis buffer consisting of 190 mM TrisHCl and pH 8.8, 0.05% SDS.
(§2) After electrophoresis, the gels are washed over 8 hr in 4 changes of 500 ml each of Renaturation Buffer (50 mM Tris.HCl, pH 7.5, 5 mM magnesium acetate, 1 mM dithiothreitol, 40 mM KCI, 400 µg/ml bovine serum albumin, 16% glycerol and 0.95 mM EDTA) at 4 °C.
(§3) The renatured proteins are assayed for DNA polymerase activity by incubating each of the two gels in 6 ml of Renaturation Buffer, 1.5 µM 4dNTPs, 4 µl of [a-^32P]dATP (800 Ci/mmol, 10 mCi/ml), and 80 µg of purified thioredoxin. One of the mixtures also contains 30 µM ddTTP (a 20-fold molar excess over dTTP). The mixtures are incubated for 4 hr at 37 °C (70 °C for 2 hr for thermophilic DNA polymerases).
(§4) After incubation the gels are washed for 8 hr against four changes of 5% trichloracetic acid and 1% sodium pyrophosphate. The gels are then dried and autoradiographed.
(§5) To determine whether a mutant DNA polymerase is discriminating more or less against ddTTP, the intensities of the radioactive bands are compared on the two gels that were incubated in the presence and absence of ddTTP, and the ratio of the signal in the two bands for the unmodified DNA polymerase is compared with the ratio of the signal in the two bands for each of the mutants.

[3] = target: T3, T7 DNA polymerase mutant T7 C-T3, R R S A K T F I Y G F L Y G (Escherichia phage T7, UniProt P00581, D519R/DEL118-145/N520S); test: as above; format: biochemical, bacteriophage T7; details: renatured enzyme in gel; 1.5 µM 4dNTPs with or without 30 µM ddTTP; 37 °C 4 hr
T3 construct: made in house; host or cells: induced cells of a strain producing E. coli thioredoxin; crude lysate, renatured in gel
Method: as §1, §2, §3, §4, §5

[4] = target: T4, T7 DNA polymerase mutant T7 C-T4, R D N A K A I N F G F L Y G (Escherichia phage T7, UniProt P00581, DEL118-145/F524I/I525N/T523A/Y526F); test: as above; format: biochemical, bacteriophage T7; details: renatured enzyme in gel; 1.5 µM 4dNTPs with or without 30 µM ddTTP; 37 °C 4 hr
T4 construct: made in house; host or cells: induced cells of a strain producing E. coli thioredoxin; crude lysate, renatured in gel
Method: as §1, §2, §3, §4, §5

[5] = target: T5, T7 DNA polymerase mutant T7 C-T5, R D N A K A I I Y G F L Y G (Escherichia phage T7, UniProt P00581, DEL118-145/F524I/T523A); test: as above; format: biochemical, bacteriophage T7; details: renatured enzyme in gel; 1.5 µM 4dNTPs with or without 30 µM ddTTP; 37 °C 4 hr
T5 construct: made in house; host or cells: induced cells of a strain producing E. coli thioredoxin; crude lysate, renatured in gel
Method: as §1, §2, §3, §4, §5

[6] = target: T6, T7 DNA polymerase mutant T7 C-T6, R D N A K T F N F G F L Y G (Escherichia phage T7, UniProt P00581, DEL118-145/I525N/Y526F); test: as above; format: biochemical, bacteriophage T7; details: renatured enzyme in gel; 1.5 µM 4dNTPs with or without 30 µM ddTTP; 37 °C 4 hr
T6 construct: made in house; host or cells: induced cells of a strain producing E. coli thioredoxin; crude lysate, renatured in gel
Method: as §1, §2, §3, §4, §5

[7] = target: T7, T7 DNA polymerase mutant T7 C-T7, R D N A K T F N Y G F L Y G (Escherichia phage T7, UniProt P00581, DEL118-145/I525N); test: as above; format: biochemical, bacteriophage T7; details: renatured enzyme in gel; 1.5 µM 4dNTPs with or without 30 µM ddTTP; 37 °C 4 hr
T7 construct: made in house; host or cells: induced cells of a strain producing E. coli thioredoxin; crude lysate, renatured in gel
Method: as §1, §2, §3, §4, §5

[8] = target: T8, T7 DNA polymerase mutant T7 C-T8 (Y526F), R D N A K T F I F G F L Y G (Escherichia phage T7, UniProt P00581, DEL118-145/Y526F); test: as above; format: biochemical, bacteriophage T7
T8 construct: made in house; host or cells: induced cells of a strain producing E. coli thioredoxin; crude lysate, renatured in gel
Method: as §1, §2, §3, §4, §5

[9] = target: T9, T7 DNA polymerase, wild type (T7 WT), R D N A K T F I Y G F L Y G (Escherichia phage T7, UniProt P00581, DEL118-145); test: as above; format: biochemical, bacteriophage T7
T9 construct: made in house; host or cells: induced cells of a strain producing E. coli thioredoxin; crude lysate, renatured in gel
Method: as §1, §2, §3, §4, §5

[10] = target: T10, E. coli DNA polymerase I mutant Pol I C-K1, R D N A K T F I Y G F L Y G (Escherichia coli, UniProt P00582, A759T/F762Y/I760F/I765L/L764F/N761I/R755D/S756N); test: as above; format: biochemical; details: renatured enzyme in gel; 1.5 µM 4dNTPs with or without 30 µM ddTTP; 37 °C 4 hr
T10 construct: the large fragment of E. coli DNA polymerase I (Klenow fragment); made in house; crude lysate, renatured in gel
Method: as §1, §2, §3, §4, §5

[11] = target: T11, E. coli DNA polymerase I mutant Pol I C-K2, R R S A K T F I Y G L I Y G (Escherichia coli, UniProt P00582, A759T/F762Y/I760F/N761I); test: as above; format: biochemical; details: renatured enzyme in gel; 1.5 µM 4dNTPs with or without 30 µM ddTTP; 37 °C 4 hr
T11 construct: the large fragment of E. coli DNA polymerase I (Klenow fragment); made in house; crude lysate, renatured in gel
Method: as §1, §2, §3, §4, §5

[12] = renatured enzyme in gel, 1.5 µM 4dNTPs with or without 30 µM ddTTP, 37 °C 4 hr

Chain of T7 DNA polymerase (P0AA25 2-109): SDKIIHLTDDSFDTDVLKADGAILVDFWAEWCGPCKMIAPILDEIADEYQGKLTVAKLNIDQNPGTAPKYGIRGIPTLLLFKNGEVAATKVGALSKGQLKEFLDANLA
Chain of T7 DNA polymerase (P00581 whole entry): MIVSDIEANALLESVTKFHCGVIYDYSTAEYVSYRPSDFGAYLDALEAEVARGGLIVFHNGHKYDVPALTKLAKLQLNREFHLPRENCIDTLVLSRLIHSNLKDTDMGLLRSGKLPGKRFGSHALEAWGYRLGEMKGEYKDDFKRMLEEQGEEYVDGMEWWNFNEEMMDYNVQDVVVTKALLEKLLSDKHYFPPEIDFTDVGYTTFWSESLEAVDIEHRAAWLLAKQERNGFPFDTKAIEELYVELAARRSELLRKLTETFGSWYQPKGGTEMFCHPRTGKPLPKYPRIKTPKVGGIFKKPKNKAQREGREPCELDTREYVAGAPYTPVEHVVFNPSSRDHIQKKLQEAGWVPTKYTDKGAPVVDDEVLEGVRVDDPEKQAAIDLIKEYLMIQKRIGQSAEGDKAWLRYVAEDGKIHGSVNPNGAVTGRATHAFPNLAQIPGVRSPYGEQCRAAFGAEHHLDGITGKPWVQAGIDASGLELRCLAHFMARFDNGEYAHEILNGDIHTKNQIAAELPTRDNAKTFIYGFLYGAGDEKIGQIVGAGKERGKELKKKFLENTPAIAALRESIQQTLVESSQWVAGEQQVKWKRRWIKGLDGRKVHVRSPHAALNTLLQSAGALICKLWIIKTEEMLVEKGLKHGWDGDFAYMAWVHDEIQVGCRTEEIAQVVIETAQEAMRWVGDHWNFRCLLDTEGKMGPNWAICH
T9 sequence (P00581 other isoform, or with tags, fused parts or gaps DEL118-145): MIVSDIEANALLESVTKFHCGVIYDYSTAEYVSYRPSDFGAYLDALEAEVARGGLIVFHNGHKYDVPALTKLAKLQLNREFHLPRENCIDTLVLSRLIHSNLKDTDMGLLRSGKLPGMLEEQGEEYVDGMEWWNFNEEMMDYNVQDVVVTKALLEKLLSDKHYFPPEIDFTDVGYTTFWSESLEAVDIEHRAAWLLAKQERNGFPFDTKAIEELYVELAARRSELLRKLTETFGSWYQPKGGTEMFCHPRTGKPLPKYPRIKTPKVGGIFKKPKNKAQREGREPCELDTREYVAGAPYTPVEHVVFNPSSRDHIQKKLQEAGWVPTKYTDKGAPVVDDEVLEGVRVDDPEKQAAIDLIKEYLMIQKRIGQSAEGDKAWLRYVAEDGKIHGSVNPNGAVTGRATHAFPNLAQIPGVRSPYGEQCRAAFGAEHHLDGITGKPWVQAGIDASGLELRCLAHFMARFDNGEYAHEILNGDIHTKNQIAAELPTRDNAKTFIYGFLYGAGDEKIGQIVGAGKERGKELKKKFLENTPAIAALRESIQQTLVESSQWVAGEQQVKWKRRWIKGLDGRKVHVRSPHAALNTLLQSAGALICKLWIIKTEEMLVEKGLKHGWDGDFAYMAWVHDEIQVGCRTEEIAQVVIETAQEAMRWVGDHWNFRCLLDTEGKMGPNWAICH
T9 sequence (P0AA25 2-109, stated change not applied, further chain): as the sequence (P0AA25 2-109) above
T8 sequence (P00581 other isoform, or with tags, fused parts or gaps DEL118-145/Y526F): as the sequence (P00581 other isoform, or with tags, fused parts or gaps DEL118-145) above, with Y498F counted along it
T8 sequence (P0AA25 2-109, stated change not applied, further chain): as the sequence (P0AA25 2-109) above
T6 sequence (P0AA25 2-109, stated change not applied): as the sequence (P0AA25 2-109) above
T6 sequence (P00581 other isoform, or with tags, fused parts or gaps DEL118-145/I525N/Y526F): as the sequence (P00581 other isoform, or with tags, fused parts or gaps DEL118-145) above, with I497N, Y498F counted along it
T5 sequence (P0AA25 2-109, stated change not applied): as the sequence (P0AA25 2-109) above
T5 sequence (P00581 other isoform, or with tags, fused parts or gaps DEL118-145/T523A/F524I): as the sequence (P00581 other isoform, or with tags, fused parts or gaps DEL118-145) above, with T495A, F496I counted along it
T3 sequence (P00581 other isoform, or with tags, fused parts or gaps DEL118-145/D519R/N520S): as the sequence (P00581 other isoform, or with tags, fused parts or gaps DEL118-145) above, with D491R, N492S counted along it
T3 sequence (P0AA25 2-109, stated change not applied, further chain): as the sequence (P0AA25 2-109) above
T10 sequence (P00582 324-928 R755D/S756N/A759T/I760F/N761I/F762Y/L764F/I765L): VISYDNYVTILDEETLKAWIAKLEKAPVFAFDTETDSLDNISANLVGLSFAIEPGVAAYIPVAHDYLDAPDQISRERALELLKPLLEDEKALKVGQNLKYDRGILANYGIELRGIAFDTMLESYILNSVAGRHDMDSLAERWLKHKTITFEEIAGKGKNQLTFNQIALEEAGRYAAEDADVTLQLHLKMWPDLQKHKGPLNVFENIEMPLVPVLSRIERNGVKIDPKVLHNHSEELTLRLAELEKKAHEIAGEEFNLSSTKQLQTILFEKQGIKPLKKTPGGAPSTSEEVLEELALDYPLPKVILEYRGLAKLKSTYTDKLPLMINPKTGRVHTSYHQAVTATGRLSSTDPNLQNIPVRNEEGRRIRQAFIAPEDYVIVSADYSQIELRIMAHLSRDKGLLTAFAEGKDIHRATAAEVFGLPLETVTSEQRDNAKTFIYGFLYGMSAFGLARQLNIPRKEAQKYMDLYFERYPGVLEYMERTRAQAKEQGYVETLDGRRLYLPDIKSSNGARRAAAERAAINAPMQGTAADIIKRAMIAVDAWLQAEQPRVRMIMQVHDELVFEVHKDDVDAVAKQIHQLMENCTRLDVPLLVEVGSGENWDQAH
T4 sequence (P00581 other isoform, or with tags, fused parts or gaps DEL118-145/T523A/F524I/I525N/Y526F): as the sequence (P00581 other isoform, or with tags, fused parts or gaps DEL118-145) above, with T495A, F496I, I497N, Y498F counted along it
T4 sequence (P0AA25 2-109, stated change not applied, further chain): as the sequence (P0AA25 2-109) above
T2 sequence (P00581 other isoform, or with tags, fused parts or gaps DEL118-145/D519R/N520S/T523A/F524I/I525N/Y526F/F528L/L529I): as the sequence (P00581 other isoform, or with tags, fused parts or gaps DEL118-145) above, with D491R, N492S, T495A, F496I, I497N, Y498F, F500L, L501I counted along it
T2 sequence (P0AA25 2-109, stated change not applied, further chain): as the sequence (P0AA25 2-109) above
T11 sequence (P00582 324-928 A759T/I760F/N761I/F762Y): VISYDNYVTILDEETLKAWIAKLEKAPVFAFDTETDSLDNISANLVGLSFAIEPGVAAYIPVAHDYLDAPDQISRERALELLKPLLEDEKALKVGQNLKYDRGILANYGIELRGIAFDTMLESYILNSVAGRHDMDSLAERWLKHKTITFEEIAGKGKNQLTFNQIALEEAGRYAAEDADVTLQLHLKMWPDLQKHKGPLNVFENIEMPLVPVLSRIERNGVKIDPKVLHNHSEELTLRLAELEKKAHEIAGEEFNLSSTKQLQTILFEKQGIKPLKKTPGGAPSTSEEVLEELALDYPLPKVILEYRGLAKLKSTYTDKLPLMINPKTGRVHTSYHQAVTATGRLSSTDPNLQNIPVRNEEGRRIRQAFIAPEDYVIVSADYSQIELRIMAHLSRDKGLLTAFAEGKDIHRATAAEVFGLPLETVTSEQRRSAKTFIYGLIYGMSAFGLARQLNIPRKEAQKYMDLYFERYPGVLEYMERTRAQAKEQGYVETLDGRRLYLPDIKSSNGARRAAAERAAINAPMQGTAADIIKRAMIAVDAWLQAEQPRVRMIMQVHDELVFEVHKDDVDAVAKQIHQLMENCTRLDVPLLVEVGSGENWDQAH

Nc1ncnc2c1ncn2[C@H]1CC[C@@H](COP(=O)(O)OP(=O)(O)OP(=O)(O)O)O1 [ddATP]
discrimination (T7 DNA polymerase; in the presence of manganese): 1
discrimination (T7 DNA polymerase; magnesium): 3.7

Nc1nc2c(ncn2[C@H]2CC[C@@H](COP(=O)(O)OP(=O)(O)OP(=O)(O)O)O2)c(=O)[nH]1 [ddGTP]
ddGTP required to obtain same extent of inhibition [1]: about 10 times more

Cc1cn([C@H]2CC[C@@H](COP(=O)(O)OP(=O)(O)OP(=O)(O)O)O2)c(=O)[nH]c1=O [ddTTP]
ddNTP Discrimination [2]: High
ddNTP Discrimination [3]: Low
ddNTP Discrimination [4]: High
ddNTP Discrimination [5]: Low
ddNTP Discrimination [6]: High
ddNTP Discrimination [7]: Low
intensity of the bands in the presence versus the absence of ddTTP ([8]; 30 µM ddTTP (20-fold molar excess over dTTP), 1.5 µM 4dNTPs, within a factor of two): approximately the same intensity
ddNTP Discrimination [8, 12]: High
intensity of the bands in the presence of ddTTP relative to the absence of ddTTP ([9]; 30 µM ddTTP (20-fold molar excess over dTTP), 1.5 µM 4dNTPs): < 5%
ddNTP Discrimination [9, 12]: Low
ddNTP Discrimination [10]: Low
ddNTP Discrimination [11]: Low
